{
  "source": "patent US10710978B2",
  "about": "“STK4 inhibitors for treatment of hematologic malignancies” (Dana-Farber Cancer Institute, Inc., priority 2015, dated 2020)",
  "key": {"MST4": {"target": "MST4 (Homo sapiens (Human), UniProt Q9P289)", "sequence (Q9P289 whole entry)": "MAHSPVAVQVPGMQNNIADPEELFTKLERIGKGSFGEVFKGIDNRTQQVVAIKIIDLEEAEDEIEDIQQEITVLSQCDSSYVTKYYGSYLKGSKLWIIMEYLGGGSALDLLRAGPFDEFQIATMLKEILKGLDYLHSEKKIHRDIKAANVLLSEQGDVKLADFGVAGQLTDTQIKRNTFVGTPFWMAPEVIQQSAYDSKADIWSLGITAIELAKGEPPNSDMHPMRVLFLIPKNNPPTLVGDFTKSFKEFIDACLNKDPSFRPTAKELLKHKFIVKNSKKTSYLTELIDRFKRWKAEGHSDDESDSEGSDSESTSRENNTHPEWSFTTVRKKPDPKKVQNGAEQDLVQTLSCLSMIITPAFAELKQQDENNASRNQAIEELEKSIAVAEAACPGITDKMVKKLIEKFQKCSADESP", "assay": "Z-lyte biochemical IC50 assay (Invitrogen)", "details": "ATP concentration matched the Km"}, "BAX": {"tested_on": "BAX", "assay": "Western blotting", "type": "cell-based", "details": "H929 cells, 1 μM, 24 hours", "excerpt": "(§1) MM.1S, KMS20 and H929 cells are counted, diluted and plated. Cells are then […] with DMSO or different concentration of a compound of the present application for 6 hrs, 24 hrs or 48 hrs. MM cells are then collected and centrifuged at RT and the pellets are re-suspended in lysis buffer. Cell lysates are subjected to sodium dodecyl sulfate-polyacrylamide gel electrophoresis SDS-PAGE, transferred to nitrocellulose membranes, and immunoblotted with different antibodies.\n(§2) MM.1S, KMS20 and H929 cells were counted, diluted and plated in six-well plates to a final concentration of 500,000 cells/well. Cells were then […] with DMSO or different concentration of a compound of the present application for 6 hrs, 24 hrs or 48 hrs. MM cells were then collected and centrifuged for 5 min, 1300 rpm at RT. The pellets were re-suspended in lysis buffer Laemli 1× (Laemli 5×: SDS 10%, DTT 500 mM, Tris-HCl pH6.8 0.4M, BromoFenol Blue, Glycerol 50%). Cell lysates were subjected to sodium dodecyl sulfate-polyacrylamide gel electrophoresis SDS-PAGE, transferred to nitrocellulose membranes, and immunoblotted with different antibodies: YAP1 (#4912), p-YAP1 (S127) (#13008), LATS1 (#9153), p-LATS1 (Thr1079) (#8654), MOB1 (#3863), p-MOB1 (Thr12) (#8843), p-MST1/p-MST2 (Thr183/Thr180) (#3681), p21 (#2947), PARP (#9532), ERK, STAT, and GAPDH (#5174) from Cell Signaling, Beverly, Mass., United States; STK4 (ab57836) (from Abcam, Cambridge, Mass., United States); PUMA (sc-28226), BAX (sc-20067), from Santa Cruz, Dallas, Tex., United States; β-actin from Sigma-Aldrich (St. Louis, Mo., United States). All antibodies were diluted 1:500, except for β-actin antibody (1:50,000 dilution). In FIG. 8, H929 cells were treated with Compound I-9 or DMSO at 1 μM concentration for 24 hours. Lysates were then obtained and immunoblot was performed using antibodies against PARP, YAP1, PUMA, BAX. p21, and GAPDH."}, "p21": {"tested_on": "p21", "assay": "Western blotting", "type": "cell-based", "details": "H929 cells, 1 μM, 24 hours", "excerpt": "as §1, §2"}, "PUMA": {"tested_on": "PUMA", "assay": "Western blotting", "type": "cell-based", "details": "H929 cells, 1 μM, 24 hours", "excerpt": "as §1, §2"}, "PARP": {"tested_on": "PARP", "assay": "Western blotting", "type": "cell-based", "details": "H929 cells, 1 μM, 24 hours", "excerpt": "as §1, §2"}, "STK4": {"target": "STK4 (Homo sapiens (Human), UniProt Q13043)", "sequence (Q13043 whole entry)": "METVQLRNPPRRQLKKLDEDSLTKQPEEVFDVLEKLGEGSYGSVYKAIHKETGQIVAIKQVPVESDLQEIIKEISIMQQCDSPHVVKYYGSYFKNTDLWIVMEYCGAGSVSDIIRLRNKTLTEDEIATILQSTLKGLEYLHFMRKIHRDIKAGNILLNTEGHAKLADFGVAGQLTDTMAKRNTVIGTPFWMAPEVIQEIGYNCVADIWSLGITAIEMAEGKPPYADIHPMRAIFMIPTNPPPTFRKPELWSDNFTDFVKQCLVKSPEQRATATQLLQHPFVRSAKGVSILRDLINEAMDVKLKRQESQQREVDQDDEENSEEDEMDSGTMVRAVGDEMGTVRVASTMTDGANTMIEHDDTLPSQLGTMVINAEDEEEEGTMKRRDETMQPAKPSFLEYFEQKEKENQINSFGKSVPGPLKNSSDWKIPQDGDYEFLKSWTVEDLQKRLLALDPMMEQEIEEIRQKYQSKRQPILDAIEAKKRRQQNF", "assay": "KiNativ Platform experiment, MM.1S cell lysates, biotinylated ATP, Western blot", "type": "binding", "details": "10 μM, 20 minutes, then biotinylated ATP 10 minutes", "procedure": "FIG. 32A and FIG. 32B show the results of a KiNativ™ Platform experiment obtained after incubating MM.1S cell lysates with 10 μM of the indicated compounds for 20 minutes, followed by incubation with biotinylated ATP for 10 minutes. FIG. 32A is a graph showing the ratio of MEK2 to STK4 derived from the Western blotting band signals in FIG. 32B, in MM.1S cell lysates treated with 10 μM of Compound I-9, I-13, or I-27 or KIN001-305 followed by incubation with biotinylated ATP. FIG. 32B is a Western blot showing the levels of STK4 and MEK2 in MM.1S cells treated with 10 μM of Compound I-9, I-13, or I-27 or KIN001-305 followed by incubation with biotinylated ATP."}, "ITPK1": {"target": "ITPK1 (Homo sapiens (Human), UniProt Q13572)", "sequence (Q13572 whole entry)": "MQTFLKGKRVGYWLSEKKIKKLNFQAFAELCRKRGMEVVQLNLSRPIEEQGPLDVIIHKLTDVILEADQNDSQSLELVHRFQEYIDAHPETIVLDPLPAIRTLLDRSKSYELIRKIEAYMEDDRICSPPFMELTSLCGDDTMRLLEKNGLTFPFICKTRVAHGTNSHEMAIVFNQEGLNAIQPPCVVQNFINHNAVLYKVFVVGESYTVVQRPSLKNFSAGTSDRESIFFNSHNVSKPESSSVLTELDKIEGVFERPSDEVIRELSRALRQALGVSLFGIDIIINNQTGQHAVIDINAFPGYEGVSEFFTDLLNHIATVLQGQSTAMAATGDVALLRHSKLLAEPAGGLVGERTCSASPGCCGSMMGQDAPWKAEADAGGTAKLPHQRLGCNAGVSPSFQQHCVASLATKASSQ", "assay": "KiNativ assay", "type": "binding", "details": "H929 live cell, range class", "procedure": "Biochemical IC50s of the compounds of the present disclosure against various kinases were measured in a KiNativ assay. Compounds were screened in duplicate at 10 μM in H929 live cell. IC50 was measured via Mass spectroscopy (MS)."}},
  "data": [
    {"smiles": "Nc1ncc(-c2cc([N+](=O)[O-])ccc2F)cc1-c1ccc2c(c1)CCNC2=O", "note": "[Compound I-1, 6-(2-amino-5-(2-fluoro-5-nitrophenyl)pyridin-3-yl)-3,4-dihydroisoquinolin-1(2H)-one]", "values": [
      {"measurement": "IC50", "setting": "MST4", "result": "> 900", "unit": "nM"}
    ]},
    {"smiles": "Nc1ncc(-c2cccc([N+](=O)[O-])c2F)cc1-c1ccc2c(c1)CCNC2=O", "note": "[Compound I-9, 6-(2-amino-5-(2-fluoro-3-nitrophenyl)pyridin-3-yl)-3,4-dihydroisoquinolin-1(2H)-one]", "values": [
      {"measurement": "protein levels of BAX", "setting": "BAX", "result": "upregulation"},
      {"measurement": "protein levels of p21", "setting": "p21", "result": "upregulation"},
      {"measurement": "protein levels of PUMA", "setting": "PUMA", "result": "upregulation"},
      {"measurement": "PARP cleavage", "setting": "PARP", "result": "induction of PARP cleavage"},
      {"measurement": "affinity for STK4, as of ATP binding", "setting": "STK4", "result": "highest affinity"}
    ]},
    {"smiles": "Nc1ncc(-c2ccc(NS(=O)(=O)C3CC3)cc2OC2CCCCC2)cc1-c1ccc2c(c1)CCNC2=O", "note": "[Compound I-65, N-(4-(6-amino-5-(1-oxo-1,2,3,4-tetrahydroisoquinolin-6-yl)pyridin-3-yl)-3-(cyclohexyloxy)phenyl) cyclopropanesulfonamide]", "values": [
      {"measurement": "inhibition at 10 µM", "setting": "ITPK1", "result": "> 100", "unit": "%"}
    ]}
  ]
}
